Laboratory results: patent publication US6358885B1, “Substituted phenylheterocyclic herbicides” (Mississippi State University, priority 1992, dated 2002)

Legend:
Experiment in all cases: Test B preemergence/postemergence greenhouse plant response rating 0 to 10
Conditions in all cases: 0 to 10 scale
blackgrass = type: in vivo, Alopecurus myosuroides
Procedure, shortened: (§1)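 Planted seeds are treated preemergence with compound dissolved in a non-phytotoxic solvent, while postemergence applications go onto plants of two to eighteen cm. Plants stay in the greenhouse twelve to sixteen days and are then rated visually relative to controls.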

chickweed = type: in vivo, Stellaria media
Procedure, shortened: as §1

soybean = type: in vivo, Glycine max
Procedure, shortened: as §1

giant foxtail = type: in vivo, Setaria faberii
Procedure, shortened: as §1

cotton = type: in vivo, Gossypium hirsutum
Procedure, shortened: as §1

wild buckwheat = type: in vivo, Polygonum convolvulus
Procedure, shortened: as §1

sorghum = type: in vivo, Sorghum bicolor
Procedure, shortened: as §1

barley = type: in vivo, Hordeum vulgare
Procedure, shortened: as §1

wild oat = type: in vivo, Avena fatua
Procedure, shortened: as §1

lambsquarters = type: in vivo, Chenopodium album
Procedure, shortened: as §1

wheat = type: in vivo, Triticum aestivum
Procedure, shortened: as §1

cheatgrass = type: in vivo, Bromus secalinus
Procedure, shortened: as §1

morningglory = type: in vivo, Ipomoea hederacea
Procedure, shortened: as §1

rape = type: in vivo, Brassica napus
Procedure, shortened: as §1

barnyardgrass = type: in vivo, Echinochloa crus-galli
Procedure, shortened: as §1

velvetleaf = type: in vivo, Abutilon theophrasti
Procedure, shortened: as §1

sugar beet = type: in vivo, Beta vulgaris
Procedure, shortened: as §1

bedstraw = type: in vivo, Galium aparine
Procedure, shortened: as §1

corn = type: in vivo, Zea mays
Procedure, shortened: as §1

cocklebur = type: in vivo, Xanthium pensylvanicum
Procedure, shortened: as §1

purple nutsedge = type: in vivo, Cyperus rotundus
Procedure, shortened: as §1

rice = type: in vivo, Oryza sativa
Procedure, shortened: as §1

crabgrass = type: in vivo, Digitaria spp.
Procedure, shortened: as §1

O=C1COc2cc(F)c(-c3nn4c(c3Cl)CCCC4)cc2N1 [Compound 51]
Plant response rating, Blackgrass (blackgrass; POSTEMERGENCE, Rate 50 g/ha): 6 | Plant response rating, Blackgrass (blackgrass; POSTEMERGENCE, Rate 200 g/ha): 6 | Plant response rating, Blackgrass (blackgrass; PREEMERGENCE, Rate 50 g/ha): 2 | Plant response rating, Blackgrass (blackgrass; Rate 200 g/ha, PREEMERGENCE): 6 | Plant response rating, Chickweed (chickweed; POSTEMERGENCE, Rate 50 g/ha): 10 | Plant response rating, Chickweed (chickweed; POSTEMERGENCE, Rate 200 g/ha): 10 | Plant response rating, Chickweed (chickweed; PREEMERGENCE, Rate 50 g/ha): 6 | Plant response rating, Chickweed (chickweed; Rate 200 g/ha, PREEMERGENCE): 10 | Plant response rating, Soybean (soybean; POSTEMERGENCE, Rate 50 g/ha): 8 | Plant response rating, Soybean (soybean; PREEMERGENCE, Rate 50 g/ha): 1 | Plant response rating, Soybean (soybean; Rate 200 g/ha, POSTEMERGENCE): 9 | Plant response rating, Soybean (soybean; Rate 200 g/ha, PREEMERGENCE): 8 | Plant response rating, Giant foxtail (giant foxtail; POSTEMERGENCE, Rate 50 g/ha): 4 | Plant response rating, Giant foxtail (giant foxtail; PREEMERGENCE, Rate 50 g/ha): 2 | Plant response rating, Giant foxtail (giant foxtail; Rate 200 g/ha, POSTEMERGENCE): 6 | Plant response rating, Giant foxtail (giant foxtail; Rate 200 g/ha, PREEMERGENCE): 8 | Plant response rating, Cotton (cotton; POSTEMERGENCE, Rate 50 g/ha): 10 | Plant response rating, Cotton (cotton; POSTEMERGENCE, Rate 200 g/ha): 10 | Plant response rating, Cotton (cotton; PREEMERGENCE, Rate 50 g/ha): 1 | Plant response rating, Cotton (cotton; Rate 200 g/ha, PREEMERGENCE): 5 | Plant response rating, Wild buckwheat (wild buckwheat; POSTEMERGENCE, Rate 50 g/ha): 10 | Plant response rating, Wild buckwheat (wild buckwheat; PREEMERGENCE, Rate 50 g/ha): 10 | Plant response rating, Wild buckwheat (wild buckwheat; Rate 200 g/ha, POSTEMERGENCE): 10 | Plant response rating, Wild buckwheat (wild buckwheat; Rate 200 g/ha, PREEMERGENCE): 10 | Plant response rating, Sorghum (sorghum; POSTEMERGENCE, Rate 50 g/ha): 4 | Plant response rating, Sorghum (sorghum; PREEMERGENCE, Rate 50 g/ha): 0 | Plant response rating, Sorghum (sorghum; Rate 200 g/ha, POSTEMERGENCE): 6 | Plant response rating, Sorghum (sorghum; Rate 200 g/ha, PREEMERGENCE): 0 | Plant response rating, Barley (barley; POSTEMERGENCE, Rate 50 g/ha): 3 | Plant response rating, Barley (barley; POSTEMERGENCE, Rate 200 g/ha): 3 | Plant response rating, Barley (barley; PREEMERGENCE, Rate 50 g/ha): 0 | Plant response rating, Barley (barley; Rate 200 g/ha, PREEMERGENCE): 0 | Plant response rating, Wild oat (wild oat; POSTEMERGENCE, Rate 50 g/ha): 2 | Plant response rating, Wild oat (wild oat; PREEMERGENCE, Rate 50 g/ha): 0 | Plant response rating, Wild oat (wild oat; Rate 200 g/ha, POSTEMERGENCE): 3 | Plant response rating, Lambsquarter (lambsquarters; POSTEMERGENCE, Rate 50 g/ha): 10 | Plant response rating, Lambsquarter (lambsquarters; PREEMERGENCE, Rate 50 g/ha): 10 | Plant response rating, Lambsquarter (lambsquarters; Rate 200 g/ha, POSTEMERGENCE): 10 | Plant response rating, Lambsquarter (lambsquarters; Rate 200 g/ha, PREEMERGENCE): 10 | Plant response rating, Wheat (wheat; POSTEMERGENCE, Rate 50 g/ha): 3 | Plant response rating, Wheat (wheat; PREEMERGENCE, Rate 50 g/ha): 0 | Plant response rating, Wheat (wheat; Rate 200 g/ha, POSTEMERGENCE): 4 | Plant response rating, Wheat (wheat; Rate 200 g/ha, PREEMERGENCE): 2 | Plant response rating, Cheatgrass (cheatgrass; POSTEMERGENCE, Rate 50 g/ha): 4 | Plant response rating, Cheatgrass (cheatgrass; POSTEMERGENCE, Rate 200 g/ha): 4 | Plant response rating, Cheatgrass (cheatgrass; PREEMERGENCE, Rate 50 g/ha): 3 | Plant response rating, Cheatgrass (cheatgrass; Rate 200 g/ha, PREEMERGENCE): 5 | Plant response rating, Morningglory (morningglory; POSTEMERGENCE, Rate 50 g/ha): 9 | Plant response rating, Morningglory (morningglory; PREEMERGENCE, Rate 50 g/ha): 9 | Plant response rating, Morningglory (morningglory; Rate 200 g/ha, POSTEMERGENCE): 10 | Plant response rating, Morningglory (morningglory; Rate 200 g/ha, PREEMERGENCE): 10 | Plant response rating, Rape (rape; POSTEMERGENCE, Rate 50 g/ha): 7 | Plant response rating, Rape (rape; PREEMERGENCE, Rate 50 g/ha): 8 | Plant response rating, Rape (rape; Rate 200 g/ha, POSTEMERGENCE): 10 | Plant response rating, Rape (rape; Rate 200 g/ha, PREEMERGENCE): 10 | Plant response rating, Barnyardgrass (barnyardgrass; POSTEMERGENCE, Rate 50 g/ha): 8 | Plant response rating, Barnyardgrass (barnyardgrass; POSTEMERGENCE, Rate 200 g/ha): 9 | Plant response rating, Barnyardgrass (barnyardgrass; PREEMERGENCE, Rate 50 g/ha): 9 | Plant response rating, Barnyardgrass (barnyardgrass; Rate 200 g/ha, PREEMERGENCE): 9 | Plant response rating, Velvetleaf (velvetleaf; POSTEMERGENCE, Rate 50 g/ha): 9 | Plant response rating, Velvetleaf (velvetleaf; PREEMERGENCE, Rate 50 g/ha): 10 | Plant response rating, Velvetleaf (velvetleaf; Rate 200 g/ha, POSTEMERGENCE): 10 | Plant response rating, Velvetleaf (velvetleaf; Rate 200 g/ha, PREEMERGENCE): 10 | Plant response rating, Sugar beet (sugar beet; POSTEMERGENCE, Rate 50 g/ha): 10 | Plant response rating, Sugar beet (sugar beet; PREEMERGENCE, Rate 50 g/ha): 10 | Plant response rating, Sugar beet (sugar beet; Rate 200 g/ha, POSTEMERGENCE): 10 | Plant response rating, Sugar beet (sugar beet; Rate 200 g/ha, PREEMERGENCE): 10 | Plant response rating, Bedstraw (bedstraw; POSTEMERGENCE, Rate 50 g/ha): 10 | Plant response rating, Bedstraw (bedstraw; POSTEMERGENCE, Rate 200 g/ha): 10 | Plant response rating, Bedstraw (bedstraw; PREEMERGENCE, Rate 50 g/ha): 5 | Plant response rating, Bedstraw (bedstraw; Rate 200 g/ha, PREEMERGENCE): 10 | Plant response rating, Corn (corn; POSTEMERGENCE, Rate 50 g/ha): 4 | Plant response rating, Corn (corn; POSTEMERGENCE, Rate 200 g/ha): 6 | Plant response rating, Corn (corn; PREEMERGENCE, Rate 50 g/ha): 0 | Plant response rating, Corn (corn; Rate 200 g/ha, PREEMERGENCE): 0 | Plant response rating, Cocklebur (cocklebur; POSTEMERGENCE, Rate 50 g/ha): 9 | Plant response rating, Cocklebur (cocklebur; POSTEMERGENCE, Rate 200 g/ha): 10 | Plant response rating, Cocklebur (cocklebur; PREEMERGENCE, Rate 50 g/ha): 2 | Plant response rating, Cocklebur (cocklebur; Rate 200 g/ha, PREEMERGENCE): 9 | Plant response rating, Nutsedge (purple nutsedge; POSTEMERGENCE, Rate 50 g/ha): 3 | Plant response rating, Nutsedge (purple nutsedge; PREEMERGENCE, Rate 50 g/ha): 0 | Plant response rating, Nutsedge (purple nutsedge; Rate 200 g/ha, POSTEMERGENCE): 3 | Plant response rating, Nutsedge (purple nutsedge; Rate 200 g/ha, PREEMERGENCE): 0 | Plant response rating, Rice (rice; POSTEMERGENCE, Rate 50 g/ha): 3 | Plant response rating, Rice (rice; PREEMERGENCE, Rate 50 g/ha): 0 | Plant response rating, Rice (rice; Rate 200 g/ha, POSTEMERGENCE): 5 | Plant response rating, Rice (rice; Rate 200 g/ha, PREEMERGENCE): 2 | Plant response rating, Crabgrass (crabgrass; POSTEMERGENCE, Rate 50 g/ha): 4 | Plant response rating, Crabgrass (crabgrass; POSTEMERGENCE, Rate 200 g/ha): 5 | Plant response rating, Crabgrass (crabgrass; PREEMERGENCE, Rate 50 g/ha): 2 | Plant response rating, Crabgrass (crabgrass; Rate 200 g/ha, PREEMERGENCE): 9
